Experimental data as given in ChEMBL document CHEMBL1201862, “PubChem BioAssay data set” (2004).
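Values below derive from 48-hour exposures of cells grown in 96-well plates, with endpoints linearly interpolated between the two concentrations bracketing the appropriate inhibition level. GI50 = concentration required for 50% inhibition of growth.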 The source made the active and inactive calls. Rule as the data show it: active = GI50 up to about 1.1 µM and inactive = higher.

Tests used:
Assay in all cases: NCI tumour cell line growth inhibition, 48 h
[1] = test system: SNB-19
[2] = test system: HCT-116
[3] = test system: HCC 2998
[4] = test system: OVCAR-3
[5] = test system: SW-620
[6] = test system: HL-60
[7] = test system: SK-MEL-2
[8] = test system: MOLT-4
[9] = test system: RPMI-8226
[10] = test system: MDA-N
[11] = test system: SR
[12] = test system: NCI-H522
[13] = test system: SF-539
[14] = test system: CAKI-1
[15] = test system: DU-145
[16] = test system: SF-295
[17] = test system: MCF7
[18] = test system: HOP-92
[19] = test system: LOX IMVI
[20] = test system: MDA-MB-231

SMILES: CC1(C)CC(=O)c2c(nc(SSc3nc4c(c(-c5ccc(Br)cc5)c3C#N)C(=O)CC(C)(C)C4)c(C#N)c2-c2ccc(Br)cc2)C1
- GI50 [1]: > 10 µM (inactive)
- GI50 [2]: > 10 µM (inactive)
- GI50 [3]: > 10 µM (inactive)
- GI50 [4]: > 10 µM (inactive)
- GI50 [5]: > 10 µM (inactive)
- GI50 [6]: > 10 µM (inactive)
- GI50 [7]: > 10 µM (inactive)
- GI50 [8]: > 10 µM (inactive)
- GI50 [9]: > 10 µM (inactive)
- GI50 [10]: > 10 µM (inactive)
- GI50 [11]: > 10 µM (inactive)
- GI50 [12]: > 10 µM (inactive)
- GI50 [13]: > 10 µM (inactive)
- GI50 [14]: > 10 µM (inactive)
- GI50 [15]: > 10 µM (inactive)
- GI50 [16]: > 10 µM (inactive)
- GI50 [17]: > 10 µM (inactive)
- GI50 [18]: > 10 µM (inactive)
- GI50 [19]: > 10 µM (inactive)

SMILES: O=C1CC2OCC=C3CN4CCC56c7ccccc7N1C5C2C3CC46O (stereo not drawn)
- GI50 [1]: > 100 µM (inactive)
- GI50 [2]: > 100 µM (inactive)
- GI50 [3]: > 100 µM (inactive)
- GI50 [4]: > 100 µM (inactive)
- GI50 [5]: > 100 µM (inactive)
- GI50 [6]: > 100 µM (inactive)
- GI50 [20]: > 100 µM (inactive)
- GI50 [7]: > 100 µM (inactive)
- GI50 [8]: > 100 µM (inactive)
- GI50 [9]: > 100 µM (inactive)
- GI50 [10]: > 100 µM (inactive)
- GI50 [12]: 47.5 µM (inactive)
- GI50 [13]: > 100 µM (inactive)
- GI50 [14]: 97.3 µM (inactive)
- GI50 [15]: > 100 µM (inactive)
- GI50 [16]: > 100 µM (inactive)
- GI50 [17]: > 100 µM (inactive)
- GI50 [18]: > 100 µM (inactive)
- GI50 [19]: > 100 µM (inactive)

SMILES: CCOc1cc(-c2nc3cc(F)ccc3s2)ccc1O
- GI50 [1]: 16.5 µM (inactive)
- GI50 [2]: 20.6 µM (inactive)
- GI50 [3]: 26 µM (inactive)
- GI50 [4]: 18.5 µM (inactive)
- GI50 [5]: 19.4 µM (inactive)
- GI50 [20]: 21.8 µM (inactive)
- GI50 [7]: 17.2 µM (inactive)
- GI50 [9]: 10.7 µM (inactive)
- GI50 [10]: 15.8 µM (inactive)
- GI50 [12]: 11.5 µM (inactive)
- GI50 [13]: 18.8 µM (inactive)
- GI50 [14]: 16.9 µM (inactive)
- GI50 [15]: 17.6 µM (inactive)
- GI50 [16]: 20 µM (inactive)
- GI50 [17]: 5.64 µM (inactive)
- GI50 [19]: 16 µM (inactive)

SMILES: CCOC(=O)c1nc2ccc(C(F)(F)F)cc2nc1Oc1ccc(OC)cc1
- GI50 [1]: > 100 µM (inactive)
- GI50 [2]: > 100 µM (inactive)
- GI50 [4]: > 100 µM (inactive)
- GI50 [5]: > 100 µM (inactive)
- GI50 [20]: > 100 µM (inactive)
- GI50 [7]: > 100 µM (inactive)
- GI50 [8]: > 100 µM (inactive)
- GI50 [9]: > 100 µM (inactive)
- GI50 [10]: > 100 µM (inactive)
- GI50 [13]: > 100 µM (inactive)
- GI50 [14]: 9.42 µM (inactive)
- GI50 [15]: > 100 µM (inactive)
- GI50 [16]: > 100 µM (inactive)
- GI50 [17]: > 100 µM (inactive)
- GI50 [18]: 82.2 µM (inactive)
- GI50 [19]: > 100 µM (inactive)

SMILES: OCC1CCCCCCCCCCC12SCCCS2 (stereo not drawn)
- GI50 [1]: > 100 µM (inactive)
- GI50 [2]: > 100 µM (inactive)
- GI50 [4]: > 100 µM (inactive)
- GI50 [5]: > 100 µM (inactive)
- GI50 [6]: > 100 µM (inactive)
- GI50 [7]: > 100 µM (inactive)
- GI50 [8]: > 100 µM (inactive)
- GI50 [9]: > 100 µM (inactive)
- GI50 [10]: > 100 µM (inactive)
- GI50 [11]: > 100 µM (inactive)
- GI50 [12]: > 100 µM (inactive)
- GI50 [14]: > 100 µM (inactive)
- GI50 [15]: > 100 µM (inactive)
- GI50 [17]: > 100 µM (inactive)
- GI50 [18]: > 100 µM (inactive)
- GI50 [19]: > 100 µM (inactive)

SMILES: O=C(O)c1cccc(SSc2cccc(C(=O)O)c2)c1
- GI50 [1]: > 100 µM (inactive)
- GI50 [2]: > 100 µM (inactive)
- GI50 [4]: > 100 µM (inactive)
- GI50 [5]: > 100 µM (inactive)
- GI50 [6]: > 100 µM (inactive)
- GI50 [20]: > 100 µM (inactive)
- GI50 [7]: > 100 µM (inactive)
- GI50 [8]: > 100 µM (inactive)
- GI50 [9]: > 100 µM (inactive)
- GI50 [10]: > 100 µM (inactive)
- GI50 [11]: > 100 µM (inactive)
- GI50 [12]: 58.1 µM (inactive)
- GI50 [13]: > 100 µM (inactive)
- GI50 [14]: > 100 µM (inactive)
- GI50 [15]: > 100 µM (inactive)
- GI50 [16]: > 100 µM (inactive)
- GI50 [18]: > 100 µM (inactive)
- GI50 [19]: > 100 µM (inactive)

SMILES: CCOC(=O)c1nnsc1NC(=O)NN
- GI50 [1]: > 100 µM (inactive)
- GI50 [2]: > 100 µM (inactive)
- GI50 [3]: > 100 µM (inactive)
- GI50 [4]: > 100 µM (inactive)
- GI50 [5]: > 100 µM (inactive)
- GI50 [6]: > 100 µM (inactive)
- GI50 [20]: 25.4 µM (inactive)
- GI50 [7]: > 100 µM (inactive)
- GI50 [8]: > 10 µM (inactive)
- GI50 [9]: > 100 µM (inactive)
- GI50 [10]: > 100 µM (inactive)
- GI50 [12]: > 100 µM (inactive)
- GI50 [13]: > 100 µM (inactive)
- GI50 [14]: > 100 µM (inactive)
- GI50 [15]: > 100 µM (inactive)
- GI50 [16]: > 100 µM (inactive)
- GI50 [17]: > 100 µM (inactive)
- GI50 [19]: 82.2 µM (inactive)

SMILES: NCC(Cc1ccccc1)P(=O)(O)O (stereo not drawn)
- GI50 [1]: > 100 µM (inactive)
- GI50 [2]: > 100 µM (inactive)
- GI50 [3]: > 100 µM (inactive)
- GI50 [4]: > 100 µM (inactive)
- GI50 [5]: > 100 µM (inactive)
- GI50 [6]: > 100 µM (inactive)
- GI50 [20]: > 100 µM (inactive)
- GI50 [7]: > 100 µM (inactive)
- GI50 [8]: > 100 µM (inactive)
- GI50 [10]: > 100 µM (inactive)
- GI50 [12]: > 100 µM (inactive)
- GI50 [13]: > 100 µM (inactive)
- GI50 [14]: > 100 µM (inactive)
- GI50 [15]: > 100 µM (inactive)
- GI50 [16]: > 100 µM (inactive)
- GI50 [17]: > 100 µM (inactive)
- GI50 [18]: > 100 µM (inactive)
- GI50 [19]: > 100 µM (inactive)

SMILES: COc1ccc(N2C(=O)C(=O)C3(CCCCC3)C2=O)c(OC)c1OC
- GI50 [1]: > 100 µM (inactive)
- GI50 [2]: > 100 µM (inactive)
- GI50 [4]: > 100 µM (inactive)
- GI50 [5]: > 100 µM (inactive)
- GI50 [6]: > 100 µM (inactive)
- GI50 [8]: > 100 µM (inactive)
- GI50 [9]: > 100 µM (inactive)
- GI50 [10]: > 100 µM (inactive)
- GI50 [11]: > 100 µM (inactive)
- GI50 [12]: > 100 µM (inactive)
- GI50 [13]: > 100 µM (inactive)
- GI50 [14]: > 100 µM (inactive)
- GI50 [15]: > 100 µM (inactive)
- GI50 [16]: > 100 µM (inactive)
- GI50 [17]: > 100 µM (inactive)
- GI50 [19]: > 100 µM (inactive)

SMILES: COc1cc2cc(C(=O)N3CC(CCl)c4c3cc(N)c3ccccc43)[nH]c2cc1OCCN(C)C (stereo not drawn)
- GI50 [1]: 0.00644 µM (active)
- GI50 [2]: < 0.005 µM (active)
- GI50 [3]: < 0.005 µM (active)
- GI50 [4]: 0.00734 µM (active)
- GI50 [5]: < 0.005 µM (active)
- GI50 [20]: < 0.005 µM (active)
- GI50 [7]: < 0.005 µM (active)
- GI50 [8]: 0.0561 µM (active)
- GI50 [9]: < 0.005 µM (active)
- GI50 [10]: < 0.005 µM (active)
- GI50 [12]: < 0.005 µM (active)
- GI50 [13]: < 0.005 µM (active)
- GI50 [14]: < 0.005 µM (active)
- GI50 [15]: < 0.005 µM (active)
- GI50 [16]: < 0.005 µM (active)
- GI50 [17]: < 0.005 µM (active)
- GI50 [18]: < 0.005 µM (active)
- GI50 [19]: < 0.005 µM (active)

SMILES: O=C1CCCCC/C1=C\c1ccc(F)cc1
- GI50 [1]: > 100 µM (inactive)
- GI50 [2]: 89.3 µM (inactive)
- GI50 [3]: > 100 µM (inactive)
- GI50 [4]: > 100 µM (inactive)
- GI50 [5]: > 100 µM (inactive)
- GI50 [20]: > 100 µM (inactive)
- GI50 [7]: > 100 µM (inactive)
- GI50 [8]: 67.3 µM (inactive)
- GI50 [9]: 45.2 µM (inactive)
- GI50 [10]: > 100 µM (inactive)
- GI50 [11]: 47.6 µM (inactive)
- GI50 [12]: 51.5 µM (inactive)
- GI50 [14]: > 100 µM (inactive)
- GI50 [15]: > 100 µM (inactive)
- GI50 [16]: > 100 µM (inactive)
- GI50 [18]: 61.1 µM (inactive)
- GI50 [19]: 94 µM (inactive)

SMILES: O=c1c(NCc2ccccc2)c(C2(c3ccccc3F)SCCCS2)c1=O
- GI50 [1]: > 100 µM (inactive)
- GI50 [2]: > 100 µM (inactive)
- GI50 [4]: > 100 µM (inactive)
- GI50 [5]: > 100 µM (inactive)
- GI50 [6]: 29.2 µM (inactive)
- GI50 [20]: > 100 µM (inactive)
- GI50 [7]: > 100 µM (inactive)
- GI50 [8]: 54 µM (inactive)
- GI50 [10]: 41.9 µM (inactive)
- GI50 [12]: 23.7 µM (inactive)
- GI50 [13]: > 100 µM (inactive)
- GI50 [14]: > 100 µM (inactive)
- GI50 [15]: > 100 µM (inactive)
- GI50 [16]: > 100 µM (inactive)
- GI50 [17]: > 100 µM (inactive)
- GI50 [18]: > 100 µM (inactive)
- GI50 [19]: > 100 µM (inactive)
